How the values were obtained:
LaTYDC1 [1] = experiment: HPLC of tyramine formed; type: biochemical, Lycoris aurea; settings: pyridoxal-5-phosphate, 50 mM Tris-HCl pH 8.0, 37 °C; GST fusion; Table 1 labels this row 'Tyramine' and prints error ± 0.12
LaTYDC1 [2] = experiment: HPLC of dopamine formed; type: biochemical, Lycoris aurea; settings: pyridoxal-5-phosphate, 50 mM Tris-HCl pH 8.0, 37 °C; GST fusion
Source text: HPLC of dopamine formed on LaTYDC1

Compound: N[C@@H](Cc1ccc(O)cc1)C(=O)O [L-tyrosine]
- Km (LaTYDC1 [1]): 602 ± 38 µM

Compound: N[C@@H](Cc1ccc(O)c(O)c1)C(=O)O [L-Dopa, 3,4-dihydroxy-L-phenylalanine]
- Km (LaTYDC1 [2]): 966 ± 79 µM

Source: paper PMC6474336, “Cloning and characterization of a tyrosine decarboxylase involved in the biosynthesis of galanthamine in Lycoris aurea” (PeerJ, 2019)
